Data on six compounds can be found in PMC9228270, “Design, Synthesis, In Silico Studies and Inhibitory Activity towards Bcr-Abl, BTK and FLT3-ITD of New 2,6,9-Trisubstituted Purine Derivatives as Potential Agents for the Treatment of Leukaemia” (Pharmaceutics, 2022).

Like-named read-outs stand apart in the source and are kept apart here.

One data set has as its target Bcr-Abl1 (Homo sapiens, UniProt P00519). Briefly: Recombinant kinase radioassay, Abl. It counts as biochemical. Particulars: ATP 1 µM, at least three independent experiments, range 0.01–100 µM. As for the experimental part: (§1) Recombinant kinase inhibition was measured using standard radioassay. Bcr-Abl1 and Cdk-2/cyclin E kinases were produced in-house, FLT3-ITD and BTK were purchased from ProQinase. The kinases were assayed with suitable substrates (500 µM peptide […] for Abl, 1 mg/mL histone H1 for Cdk-2, 100 µM poly (Glu:Tyr; 4:1)) in the presence of ATP (1 µM for Bcr-Abl, 15 µM for Cdk-2 and BTK), 0.05 µCi [γ-^33P]ATP and the test compound in reaction buffer (60 mM HEPES-NaOH, pH 7.5, 3 mM MgCl2, 3 mM MnCl2, 3 µM Na orthovanadate, 1.2 mM DTT, 2.5 µg/50 µL PEG20.000). The reactions were stopped by adding 3% aq. H3PO4. P-81 phosphocellulose (Whatman) was used to separate phosphorylated substrates. Kinase activity was quantified using a FLA-7000 digital image analyser.

The target of a further data set is T1, BTK (Homo sapiens, UniProt Q06187).
T1 construct: purchased ProQinase
T1 sequence (Q06187 whole entry): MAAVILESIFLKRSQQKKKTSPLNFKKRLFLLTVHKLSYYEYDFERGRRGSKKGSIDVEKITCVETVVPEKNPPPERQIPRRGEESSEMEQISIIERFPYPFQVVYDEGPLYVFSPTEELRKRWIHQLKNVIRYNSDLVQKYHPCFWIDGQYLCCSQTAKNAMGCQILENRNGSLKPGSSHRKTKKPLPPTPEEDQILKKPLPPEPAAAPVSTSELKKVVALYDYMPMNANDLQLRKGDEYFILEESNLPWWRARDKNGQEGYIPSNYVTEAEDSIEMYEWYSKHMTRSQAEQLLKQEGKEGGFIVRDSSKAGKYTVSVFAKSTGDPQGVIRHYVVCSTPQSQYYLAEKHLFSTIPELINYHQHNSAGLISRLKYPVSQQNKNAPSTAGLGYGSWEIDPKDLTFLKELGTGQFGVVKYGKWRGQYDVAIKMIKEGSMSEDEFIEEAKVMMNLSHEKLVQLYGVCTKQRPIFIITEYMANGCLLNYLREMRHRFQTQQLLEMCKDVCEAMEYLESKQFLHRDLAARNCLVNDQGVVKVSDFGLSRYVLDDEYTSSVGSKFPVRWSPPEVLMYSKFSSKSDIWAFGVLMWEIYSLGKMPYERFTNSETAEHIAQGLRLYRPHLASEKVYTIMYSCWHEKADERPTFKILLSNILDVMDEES
Briefly: Recombinant kinase radioassay, BTK. Type of data set: biochemical. As for the experimental part:
as §1

The target in the next data set is T2, FLT3-ITD (Homo sapiens, UniProt P36888, ITD).
T2 sequence (P36888 27-993): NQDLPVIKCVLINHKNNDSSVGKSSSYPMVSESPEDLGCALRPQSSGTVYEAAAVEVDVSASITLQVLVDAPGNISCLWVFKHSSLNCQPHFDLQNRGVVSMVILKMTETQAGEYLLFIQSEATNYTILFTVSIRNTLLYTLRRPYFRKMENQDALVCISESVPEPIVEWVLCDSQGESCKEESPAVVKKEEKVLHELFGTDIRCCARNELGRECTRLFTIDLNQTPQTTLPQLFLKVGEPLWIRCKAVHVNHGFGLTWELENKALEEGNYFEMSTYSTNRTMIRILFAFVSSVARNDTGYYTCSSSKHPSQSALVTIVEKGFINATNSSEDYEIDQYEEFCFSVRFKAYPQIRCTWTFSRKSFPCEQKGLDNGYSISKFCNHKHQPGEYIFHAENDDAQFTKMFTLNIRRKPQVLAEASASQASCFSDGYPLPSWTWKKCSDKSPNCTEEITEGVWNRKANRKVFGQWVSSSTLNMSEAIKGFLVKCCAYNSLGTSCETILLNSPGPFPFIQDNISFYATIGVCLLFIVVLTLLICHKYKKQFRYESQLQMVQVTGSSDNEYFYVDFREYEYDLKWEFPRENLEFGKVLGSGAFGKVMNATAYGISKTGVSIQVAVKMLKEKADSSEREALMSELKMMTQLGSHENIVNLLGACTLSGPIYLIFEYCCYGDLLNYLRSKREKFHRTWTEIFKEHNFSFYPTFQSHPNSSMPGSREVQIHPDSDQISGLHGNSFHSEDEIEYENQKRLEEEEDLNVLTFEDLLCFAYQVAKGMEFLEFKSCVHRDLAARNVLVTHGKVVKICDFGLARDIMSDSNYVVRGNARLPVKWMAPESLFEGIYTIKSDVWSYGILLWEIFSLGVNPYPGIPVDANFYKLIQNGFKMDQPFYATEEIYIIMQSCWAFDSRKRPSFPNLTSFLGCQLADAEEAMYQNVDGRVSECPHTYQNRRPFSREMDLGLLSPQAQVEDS
Briefly: Recombinant kinase radioassay, FLT3-ITD. It counts as biochemical. As for the experimental part: as §1

The next data set has as its target T3, Cdk-2/cyclin E (Homo sapiens, UniProt P24941).
T3 construct: made in house
Briefly: Recombinant kinase radioassay, Cdk-2/cyclin E. It counts as biochemical. Conditions: ATP 15 µM, at least three independent experiments, range 0.01–100 µM. As for the experimental part: as §1

The next data set concerns K562. The experiment in a line: Cytotoxicity assay (resazurin), K562. Type of data set: cell-based. Conditions: Homo sapiens, 72 h, three independent experiments, range 0.1 to 25 µM. As for the experimental part:
(§2) Cytotoxicity assays for the purines were quantified using the resazurin method, a dye to measure redox reactions occurring in the mitochondria of live cells. The cells were treated by tested compounds (in triplicate, six different doses) for 72 h.

The next data set deals with HL-60. Briefly: Cytotoxicity assay (resazurin), HL-60. Type of data set: cell-based. Particulars: Homo sapiens, 72 h, three independent experiments, range 0.1 to 25 µM. As for the experimental part:
as §2
(Resazurin is reduced to fluorescent resorufin, in cell work by metabolically active cells.)

The subject of the next data set is MV4-11. Briefly: Cytotoxicity assay (resazurin), MV4-11. Type of data set: cell-based. Particulars: Homo sapiens, 72 h, three independent experiments, range 0.1 to 25 µM. As for the experimental part:
as §2

The subject of a further data set is Ramos. The experiment in a line: Cytotoxicity assay (resazurin), Ramos. Type of data set: cell-based. Particulars: Homo sapiens, 72 h, three independent experiments, range 0.1 to 25 µM. As for the experimental part: as §2
A further data set concerns CEM. Briefly: Cytotoxicity assay (resazurin), CEM. It counts as cell-based. Conditions: Homo sapiens, CCRF-CEM, 72 h, three independent experiments, range 0.1 to 25 µM. As for the experimental part: as §2
The mark [1] stands for this setting: recombinant kinase, radioassay, ATP 15 µM, at least three independent experiments, range 0.01–100 µM, read-out: IC50 BTK.
[2] abbreviates: recombinant kinase, radioassay, at least three independent experiments, range 0.01–100 µM, read-out: IC50 FLT3-ITD.

Sequence of Bcr-Abl1 (P00519 27-1130): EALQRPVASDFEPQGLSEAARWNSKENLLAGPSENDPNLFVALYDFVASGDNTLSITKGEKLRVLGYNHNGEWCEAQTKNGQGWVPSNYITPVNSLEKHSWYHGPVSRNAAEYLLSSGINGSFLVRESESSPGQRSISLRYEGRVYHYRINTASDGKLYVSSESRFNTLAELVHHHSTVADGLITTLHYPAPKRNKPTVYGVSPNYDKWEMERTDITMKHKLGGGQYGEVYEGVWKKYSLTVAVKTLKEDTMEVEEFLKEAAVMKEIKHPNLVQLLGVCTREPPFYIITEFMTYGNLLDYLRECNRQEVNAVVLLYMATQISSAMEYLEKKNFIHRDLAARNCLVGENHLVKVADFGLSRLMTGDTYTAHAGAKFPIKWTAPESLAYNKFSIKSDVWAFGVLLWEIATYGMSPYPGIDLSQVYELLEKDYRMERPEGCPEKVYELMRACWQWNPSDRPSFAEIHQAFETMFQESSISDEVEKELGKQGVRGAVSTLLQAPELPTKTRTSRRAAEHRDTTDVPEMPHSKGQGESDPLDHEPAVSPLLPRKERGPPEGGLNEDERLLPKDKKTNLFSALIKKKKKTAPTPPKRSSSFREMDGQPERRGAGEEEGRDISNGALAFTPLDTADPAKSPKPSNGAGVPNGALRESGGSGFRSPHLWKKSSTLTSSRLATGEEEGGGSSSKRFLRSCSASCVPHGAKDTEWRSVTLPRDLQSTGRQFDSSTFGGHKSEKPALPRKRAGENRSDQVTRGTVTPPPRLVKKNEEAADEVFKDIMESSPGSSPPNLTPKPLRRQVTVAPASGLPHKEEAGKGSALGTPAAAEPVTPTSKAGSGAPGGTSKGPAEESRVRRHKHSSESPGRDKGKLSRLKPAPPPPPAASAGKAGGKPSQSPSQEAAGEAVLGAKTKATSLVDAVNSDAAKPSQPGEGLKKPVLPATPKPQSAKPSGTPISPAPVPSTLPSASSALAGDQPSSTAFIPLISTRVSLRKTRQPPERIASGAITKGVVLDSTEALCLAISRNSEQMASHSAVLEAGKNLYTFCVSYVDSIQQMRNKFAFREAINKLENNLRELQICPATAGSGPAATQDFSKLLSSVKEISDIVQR

The GI50 is the concentration that inhibits growth by half. For orientation: melting point means the temperature, or range, at which the solid turns liquid. Regarding `CN1CCN(C(=O)c2ccc(Nc3nc(Nc4ccc(F)c(F)c4)c4ncn(CC5CC5)c4n3)cc2)CC1` [Compound 8c, (4-((9-(Cyclopropylmethyl)-6-((3,4-difluorophenyl)amino)-9H-purin-2-yl)amino)phenyl)(4-methylpiperazin-1-yl)methanone], the melting point lay within 142 to 143 °C. The IC50 on Bcr-Abl1 is 0.94 ± 0.22 µM. For the same compound, the IC50 on BTK (setting [1]) was found to be 2.73 ± 0.17 µM. In addition, the IC50 on FLT3-ITD (setting [2]) was 1.81 µM. Moreover, the IC50 at Cdk-2/cyclin E was 14.2 ± 1.24 µM. Besides, in the data set on K562, the GI50 was determined as 6.07 ± 0.08 µM. Also, in the data set with HL-60, the concentration for 50% growth inhibition (GI50) is 2.39 ± 0.89 µM. This compound returned a GI50 in the data set on MV4-11 of 1.52 ± 0.31 µM. The compound also gave a GI50 with Ramos of 14.69 ± 0.02 µM. Halving of growth in the data set on CEM (GI50) required 20.7 ± 4.07 µM.

`CCCCCCCCn1cnc2c(Nc3cccc(F)c3)nc(Nc3ccc(N4CCN(C)CC4)cc3)nc21` [Compound 5k, N^6-(3-Fluorophenyl)-N^2-(4-(4-methylpiperazin-1-yl)phenyl)-9-octyl-9H-purine-2,6-diamine] showed a melting point of 181.2 to 183.6 °C. For the same compound, the IC50 at Bcr-Abl1 is greater than 100 µM. In addition, the IC50 at BTK (setting [1]) is 0.97 ± 0.22 µM. Besides, on FLT3-ITD (setting [2]), the IC50 was greater than 20 µM. Further, on Cdk-2/cyclin E, the IC50 is 25.6 ± 3.27 µM. Also, the GI50 with K562 came out at 10 ± 6.31 µM. Also, the GI50 in the data set with HL-60 came out at 2.16 ± 0.48 µM. This compound also gave a GI50 in the data set on MV4-11 of 12.4 ± 3.93 µM. In the data set with Ramos, this compound displayed a GI50 of 15.7 ± 0.37 µM. This compound showed a GI50 in the data set on CEM of 21.3 ± 0.31 µM.

The compound `CN1CCN(c2ccc(Nc3nc(Nc4ccc(F)c(Cl)c4)c4ncn(CC5CC5)c4n3)cc2)CC1` [Compound 4m, N^6-(3-Chloro-4-fluorophenyl)-9-(cyclopropylmethyl)-N^2-(4-(4-methylpiperazin-1-yl)phenyl)-9H-purine-2,6-diamine] came in with a melting point of 153 to 155 °C. Moreover, the IC50 at Bcr-Abl1 is 0.27 ± 0.05 µM. Also, on BTK (setting [1]), the IC50 came to 2.39 ± 0.43 µM. Besides, the IC50 at FLT3-ITD (setting [2]) came to 1.54 µM. In addition, the IC50 on Cdk-2/cyclin E worked out at 10.8 ± 3.84 µM. The same compound showed a GI50 in the data set on K562 of 2.57 ± 0.52 µM. Moreover, in the data set on HL-60, growth was halved (GI50) at 0.86 ± 0.11 µM. For the same compound, the GI50 in the data set on MV4-11 was 1.88 ± 0.06 µM. The compound further gave a GI50 in the data set with Ramos of 7.52 ± 0.41 µM. Besides, the GI50 in the data set with CEM came out at 13.3 ± 1.58 µM.

Compound `CN1CCN(C(=O)c2ccc(Nc3nc(Nc4ccccc4)c4ncn(CC5CC5)c4n3)cc2)CC1` [Compound 8a, (4-((9-(Cyclopropylmethyl)-6-(phenylamino)-9H-purin-2-yl)amino)phenyl)(4-methylpiperazin-1-yl)methanone] gave a melting point of 164 to 165 °C. The IC50 at Bcr-Abl1 came to 1.21 ± 0.11 µM. For the same compound, the IC50 on BTK (setting [1]) amounted to 6.01 ± 0.72 µM. The IC50 on FLT3-ITD (setting [2]) was 1.95 µM. For the same compound, at Cdk-2/cyclin E, the IC50 is 31.4 ± 3.18 µM. In addition, the GI50 with K562 was 8.91 ± 1.64 µM. For the same compound, growth in the data set with HL-60 was halved (GI50) at 6.64 ± 1.42 µM. Besides, the GI50 in the data set with MV4-11 is 1.24 ± 0.21 µM. The GI50 in the data set with Ramos is 16.6 ± 0.67 µM. The same compound yielded a GI50 with CEM greater than 25 µM.

`CN1CCN(c2ccc(Nc3nc(Nc4ccccc4)c4ccn(CC5CC5)c4n3)cc2)CC1` [Compound 12, 7-(Cyclopropylmethyl)-N^2-(4-(4-Methylpiperazin-1-yl)Phenyl)-N^4-Phenyl-7H-pyrrolo[2,3-d]Pyrimidine-2,4-Diamine] had a melting point of 102.3 to 105.5 °C. The IC50 at Bcr-Abl1 was found to be 62.3 ± 12.1 µM. In addition, on BTK (-log IC50 in molar concentration, Table S3, read-out: Experimental pIC50, CoMFA BTK (converted)), the IC50 was 2.39 µM. Besides, the IC50 at BTK (setting [1]) is greater than 20 µM. Further, on FLT3-ITD (-log IC50 in molar concentration, Table S3, read-out: Experimental pIC50, CoMFA FLT3 (converted)), the IC50 was 1.54 µM. Also, the IC50 at FLT3-ITD (setting [2]) is greater than 20 µM. Moreover, the IC50 at Cdk-2/cyclin E amounted to 46.2 ± 1.49 µM. Further, in the data set on K562, the GI50 was found to be 6.38 ± 1.14 µM. In addition, halving of growth in the data set with HL-60 (GI50) required 3.58 ± 0.65 µM. Further, the GI50 in the data set with MV4-11 came to 8.28 ± 2.9 µM. Moreover, in the data set on Ramos, the GI50 was found to be 12.8 ± 0.61 µM. Besides, the GI50 with CEM amounted to 15.5 ± 1.46 µM.

As to `CC(C)CCn1cnc2c(Nc3ccccc3)nc(Nc3ccc(N4CCN(C)CC4)cc3)nc21` [Compound 5a, 9-Isopentyl-N^2-(4-(4-methylpiperazin-1-yl)phenyl)-N^6-phenyl-9H-purine-2,6-diamine], the melting point is 153.1 to 155.2 °C. Moreover, at Bcr-Abl1, the IC50 is 1.78 ± 0.2 µM. The IC50 on BTK (setting [1]) was 2.22 ± 0.96 µM. For the same compound, on FLT3-ITD (setting [2]), the IC50 stood at 0.23 µM. Besides, the IC50 on Cdk-2/cyclin E was found to be 22.1 ± 0.38 µM. This compound had a GI50 in the data set on K562 of 8.93 ± 5.52 µM. It took 1.52 ± 0.61 µM to inhibit growth with HL-60 by half (GI50). In the data set on MV4-11, this compound had a GI50 of 0.73 ± 0.25 µM. Besides, growth in the data set with Ramos was halved (GI50) at 10.1 ± 2.98 µM. The compound further returned a GI50 with CEM of 16.4 ± 2.41 µM.
